Results: paper PMC10845951, “Characterization of a selective, iron-chelating antifungal compound that disrupts fungal metabolism and synergizes with fluconazole” (Microbiology Spectrum, 2024)

Legend:
[1] = system: C. glabrata WT (10028) cells; test: XTT metabolic assay; format: cell-based, Candida glabrata; settings: 0.625, 2.5, 10 µM; 6 and 24 h
[2] = system: G. mellonella larvae infected with C. glabrata 2001HT; test: Survival assay in infected Galleria mellonella; format: in vivo; settings: wild-type C. glabrata (2001HT), 30 µM, vs DMSO
Description: (§1) Galleria mellonella was obtained from R.J. Mous Livebait (The Netherlands). The larvae were selected by weight (0.2–0.3 grams) and by the absence of dark spots on the cuticle. The larvae were maintained at room temperature, and the day before the experiment, they were transferred to the temperature at which the experiment was going to be performed (30°C). The number of dead caterpillars was scored every day. […] G. mellonella were infected with either C. glabrata 2001HT or FL-256; C. glabrata cells were grown in liquid media (Oxoid) overnight at 30°C with moderate shaking (150 rpm). Groups of 20 larvae per strain were infected in each experiment. The pro-leg area was cleaned with 70% ethanol using a swab. The larvae were inoculated with 10 µL of C. glabrata suspension at 2.5 × 10^6 cells/mL in PBS containing 50 µg/mL of ampicillin by injection, using a Hamilton syringe with 26-gauge needle in the last left pro-leg.

[3] = system: G. mellonella larvae infected with C. glabrata FL-256; test: Survival assay in infected Galleria mellonella; format: in vivo; settings: azole-resistant C. glabrata (FL-256), 30 µM, vs DMSO
Description: as §1

Candida spp. = test: Compound screening: Candida proliferation (OD600, 24 h), strain panel; format: cell-based; settings: YNB −iron
Description: For experiments, yeast cells were routinely cultured in YPD media and incubated at 30°C overnight. The cultures were refreshed the next day for 2–3 h in YNB −iron (0.69% yeast nitrogen base without amino acids or iron, with 2% dextrose) media, unless stated, at the same temperature. After incubation, the optical density (OD600) of the cell cultures was measured and adjusted to 0.15.
The collismycin compounds were provided by EntreChem (Spain) at stock solutions of 20 mM in DMSO and stored at −20°C. For serial dilutions of the compounds in clear 96-well plates, intermediate stock concentrations of 100 µM of compound (100 µL for each technical replicate) were prepared in YNB −iron media unless otherwise specified, and 1:1 serial dilutions were performed using a multi-channel pipette. Fifty microliters of cell culture (OD600 = 0.15) were added to the wells containing the compounds, for a total volume of 150 µL. The final concentrations in the wells (with three technical replicates) were equivalent to 0.5, 1, 2.1, 4.2, 8.4, 16.7, 33.3, and 66.6 µM. The OD600 of each well was quantified, and the plates were incubated inside plastic bags (to prevent evaporation) at 30°C for 24 h, after which the final OD600 was measured. The EC50 was calculated using the four-parameter log logistic function with the drc package in R ([57]).

[4] = system: Aft1/2 target genes FTR1, FET3, HMX1, LSO1 in WT S. cerevisiae; test: RT-qPCR of Aft1/2 target genes; format: cell-based, Saccharomyces cerevisiae; settings: WT Sc cells, 10 µM, 24 h
Description: WT and […] cells were grown overnight in complete supplement mixture (CSM). […] After 24 h of incubation, cells were collected, and total RNA purification, reverse transcription, and RT-qPCR were performed as previously described with minor modifications ([59], [66]). Briefly, total RNA was purified using the RNeasy Mini Kit (74104, Qiagen), and reverse transcription was performed using the QuantiTect Reverse Transcription Kit (205311, Qiagen). RT-qPCR experiments were done using the HOT FIREPol EvaGreen qPCR Mix (08-36-00001-10, Solis Biodyne) and a LightCycler 96 System (Roche). Expression of the 5S gene was used as a control. The primers used in RT-qPCR experiments are as follows: […]

C. glabrata cells = test: CellTiter-Glo assay in Candida (relative ATP levels); format: cell-based, Candida glabrata; settings: 0.625, 2.5, 10 µM; 1, 3, 6, 24 h
Description: The samples were incubated for 24 h at 30°C and then measured for OD600. Equal number of cells were harvested in each time point according to an OD600 of 0.1–0.4 and then centrifuged at 7000 rpm for 5 minutes to remove the supernatant. The cell pellets were resuspended in 100-µL YNB −iron and then transferred to a 96-well plate. Finally, the samples were treated with 100-µL CellTiter-Glo and then measured for luminescence using a plate reader.

[5] = system: C. glabrata WT (JEY10028) cells; test: Mitochondrial staining with MitoTracker; format: cell-based, Candida glabrata; settings: 6 h and 24 h, vs DMSO
[6] = Nano liquid chromatography-mass spectrometry metal binding
Description: Liquid chromatography-mass spectrometry (LC-MS)-grade water, acetonitrile, and formic acid (≥99%) were purchased from VWR (Radnor, PA, USA). […] Metal solutions containing 2 µM, 4 µM, 6 µM, and 10 µM CaCl2, CuCl2, FeCl2, FeCl3, MgCl2, MnCl2, and ZnCl2 in 0.1% formic acid in LC-MS-grade water (hereby referred to as 0.1% formic acid) were made. A stock solution of terpyridine (100 µM) in 0.1% formic acid was made and added to the metal solutions to a final concentration of 10 µM terpyridine. All metal solutions in addition to a blank sample containing 10 µM terpyridine in 0.1% formic acid were subjected to nano liquid chromatography (nanoLC-MS) analysis. nanoLC-MS was performed using an nLC EASY 1000 pump connected to a Q-Exactive mass spectrometer (MS) with a Nanospray Flex ion source (all from Thermo Fisher Scientific, Waltham, MA, USA). For separation, a 50 µm (inner diameter) × 5 cm in-house packed nanoLC column containing 2.6-µm Accucore C18 particles (80 Å) was used. The column was packed according to the protocol from Berg et al. ([58]). Trapping of analytes prior to separation was performed online using a 2-cm Acclaim PepMap with 3-µm particles (100 Å). All columns and packing materials were obtained from Thermo Fisher Scientific. The mobile phases consisted of 0.1% formic acid (A) and 90/10/0.1 acetonitrile/water/formic acid (vol/vol/vol) (B).

c1ccc(-c2cccc(-c3ccccn3)n2)nc1 [2,2′:6′,2′′-terpyridine]
reduction of XTT (mitochondrial activity) [1]: significantly inhibited the reduction of XTT | survival of infected larvae [2]: significantly improved the survival | survival of infected larvae [3]: significantly improved the survival | inhibition of growth of Candida spp. compared to ColA (Candida spp.): more potently than ColA | expression of Aft1/2 target genes FTR1, FET3, HMX1, LSO1 [4]: robust activation | expression of control 5S RNA [4]: no effect | relative ATP levels (luminescence) (C. glabrata cells): concentration- and time-dependent reduction in luminescence | MitoTracker Red CMXRos fluorescence [5]: lower fluorescence intensities | binding of Fe^2+ ([6]; 2-10 µM metal, 10 µM compound): preferentially binds Fe^2+ in a concentration-dependent manner | binding of Fe^3+ ([6]; 2-10 µM metal, 10 µM compound): much lesser extent than Fe^2+ | binding of Cu^2+ ([6]; even at high concentrations): hardly bind | binding of Zn^2+ ([6]; even at high concentrations): hardly bind
